Experimental data reported in patent US7683168B2, “Compositions of novel opioid compounds and method of use thereof” (priority 2005, dated 2010).

Columns and labels:
human delta receptor = molecular target: T1, human delta receptor (Homo sapiens, UniProt P41143); test: radioligand binding, human delta receptor, HEK-293 cell membranes; conditions: cell not marked (rat), species not given, read-out: δ
T1 construct: purchased Perkin Elmer, Boston, Mass; 6110549; host or cells: HEK-293 cells

human mu opioid receptor = molecular target: T2, human mu opioid receptor (Homo sapiens, UniProt P35372); test: radioligand binding, human mu opioid receptor, CHO cell membranes; conditions: species not given, read-out: μ
T2 construct: purchased Perkin Elmer, Boston, Mass; 6110535; host or cells: CHO cells

mouse vas deferens = test: electrically stimulated mouse vas deferens (MVD) ED50; type: cell-based; conditions: ED50, inhibition of electrically induced contractions
[1] = test system: seizure-like convulsions in mice; test: mouse seizure-like convulsions; type: in vivo
Procedure: Mouse Seizure-Like Convulsions and antinociception: The central (CNS) effects of the compound were tested with central delta receptor mediated seizure-like convulsions and central mu opioid receptor mediated antinociceptive effects in mice. Male CD-1 mice (Charles River, Raleigh, N.C.) weighing 20-25 g were used to determine the seizure-like convulsion and antinociception activities for compounds.
They were then observed for seizure-like convulsions for one hour following the treatment. A seizure-like event was recorded if a mouse had uncontrollable clonic (or tonic/clonic) muscle movements that encompassed its entire body, usually followed by a brief cataleptic period. Catalepsy was determined by placing the animal's front paws on a horizontal bar held 2-3 inches from the cage floor. Cataleptic animals made no attempt to remove their paws.

T2 sequence (P35372 whole entry): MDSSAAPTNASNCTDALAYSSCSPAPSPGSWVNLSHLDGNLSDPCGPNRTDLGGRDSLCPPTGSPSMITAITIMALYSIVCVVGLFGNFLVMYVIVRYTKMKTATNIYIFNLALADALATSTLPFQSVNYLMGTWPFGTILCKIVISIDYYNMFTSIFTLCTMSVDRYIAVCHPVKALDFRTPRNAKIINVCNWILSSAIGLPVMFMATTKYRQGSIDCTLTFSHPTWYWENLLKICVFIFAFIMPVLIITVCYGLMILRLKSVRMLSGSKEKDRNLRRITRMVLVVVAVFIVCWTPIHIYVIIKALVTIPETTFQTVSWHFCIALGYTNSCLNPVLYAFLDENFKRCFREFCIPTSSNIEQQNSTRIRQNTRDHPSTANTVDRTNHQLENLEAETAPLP
T1 sequence (P41143 whole entry): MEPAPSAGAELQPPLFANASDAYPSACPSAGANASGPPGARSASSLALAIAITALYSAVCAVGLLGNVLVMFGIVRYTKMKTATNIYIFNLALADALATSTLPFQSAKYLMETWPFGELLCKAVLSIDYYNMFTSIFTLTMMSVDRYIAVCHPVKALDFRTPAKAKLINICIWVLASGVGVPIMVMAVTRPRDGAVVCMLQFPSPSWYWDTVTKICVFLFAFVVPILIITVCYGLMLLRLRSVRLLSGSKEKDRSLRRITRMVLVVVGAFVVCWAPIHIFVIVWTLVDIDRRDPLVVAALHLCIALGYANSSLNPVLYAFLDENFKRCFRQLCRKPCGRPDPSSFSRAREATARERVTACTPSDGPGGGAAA

Row | SMILES | Ki (human delta receptor) [nM] | Ki (human mu opioid receptor) [nM] | EC50 (mouse vas deferens) [nM] | Seiz. ([1]; 20 mg/kg IV) [% 20 mg/kg IV] | Seiz. ([1]; 10 mg/kg IV) [% 10 mg/kg IV] | Seiz. ([1]; 60 mg/kg PO) [% 60 mg/kg PO]
1 | CCOC(=O)CN1CCCN(C(=O)c2cccc(C(c3cccc(O)c3)N3C[C@@H](C)N(CC4CC4)C[C@@H]3C)c2)CC1 (some centres unmarked) | 1.9 | 3.9 | 38.9 | 0 | – | –
2 | C[C@@H]1CN(C(c2cccc(O)c2)c2cccc(C(=O)N3CCCN(CC(=O)O)CC3)c2)[C@@H](C)CN1CC1CC1 (some centres unmarked) | 6.8 | 33.1 | 65.2 | 0 | – | –
3 | CCOC(=O)CCCN1CCCN(C(=O)c2cccc(C(c3cccc(O)c3)N3C[C@@H](C)N(Cc4ccccc4)C[C@@H]3C)c2)CC1 (some centres unmarked) | 50.1 | 1.2 | 10.6 | – | 30 | –
4 | C[C@@H]1CN(C(c2cccc(O)c2)c2cccc(C(=O)N3CCCN(CCCC(=O)O)CC3)c2)[C@@H](C)CN1Cc1cccc(F)c1 (some centres unmarked) | 94 | 0.27 | 6.37 | – | 0 | –
5 | CCOC(=O)CCCCN1CCCN(C(=O)c2cccc(C(c3cccc(O)c3)N3C[C@@H](C)N(Cc4ccccc4)C[C@@H]3C)c2)CC1 (some centres unmarked) | 2.6 | 6.3 | 11.1 | – | 25 | –
6 | C[C@@H]1CN(C(c2cccc(O)c2)c2cccc(C(=O)N3CCCN(CCCCC(=O)O)CC3)c2)[C@@H](C)CN1Cc1ccccc1 (some centres unmarked) | 20.4 | 23.5 | 3.28 | – | 0 | –
7 | CCOC(=O)CCCCN1CCCN(C(=O)c2cccc(C(c3cccc(O)c3)N3C[C@@H](C)N(Cc4cccc(F)c4)C[C@@H]3C)c2)CC1 (some centres unmarked) | 6.1 | 15.7 | 61.5 | – | 0 | –
8 | C[C@@H]1CN(C(c2cccc(O)c2)c2cccc(C(=O)N3CCCN(CCCCC(=O)O)CC3)c2)[C@@H](C)CN1Cc1cccc(F)c1 (some centres unmarked) | 35.4 | 34.8 | 14.7 | – | 0 | –
9 | C=CCN1C[C@H](C)N(C(c2cccc(O)c2)c2cccc(C(=O)N3CCCN(CCCCCC(=O)O)CC3)c2)C[C@H]1C (some centres unmarked) | 5.3 | 89.9 | 19 | – | 0 | –
10 | C=CCN1C[C@H](C)N(C(c2cccc(O)c2)c2cccc(C(=O)N3CCCN(Cc4cccc(C(=O)O)c4)CC3)c2)C[C@H]1C (some centres unmarked) | – | 5.5 | 6.23 | – | 0 | –
11 | C=CCN1C[C@H](C)N(C(c2cccc(O)c2)c2cccc(C(=O)N3CCCN(Cc4ccccc4C(=O)O)CC3)c2)C[C@H]1C (some centres unmarked) | – | 1.4 | 2.2 | – | 40 | –
12 | C[C@@H]1CN([C@@H](c2cccc(O)c2)c2cccc(C(=O)N3CCN(CC(=O)O)CC3)c2)[C@@H](C)CN1Cc1cccc(F)c1 [Example 67, (4-{3-[(R)-[(2S,5R)-4-(3-Fluoro-benzyl)-2,5-dimethyl-piperazin-1-yl]-(3-hydroxy-phenyl)-methyl]-benzoyl}-piperazin-1-yl)-acetic acid] | – | 10.7 | 2.82 | – | 0 | –
13 | CCOC(=O)CCCCN1CCN(C(=O)c2cccc([C@H](c3cccc(O)c3)N3C[C@@H](C)N(CC4CC4)C[C@@H]3C)c2)CC1 [Example 89, 5-(4-{3-[(R)-((2S,5R)-4-Cyclopropylmethyl-2,5-dimethyl-piperazin-1-yl)-(3-hydroxy-phenyl)-methyl]-benzoyl}-piperazin-1-yl)-pentanoic acid ethyl ester] | 15.4 | 23.2 | 92.7 | – | – | –
14 | C[C@@H]1CN([C@@H](c2cccc(O)c2)c2cccc(C(=O)N3CCN(CCCCC(=O)O)CC3)c2)[C@@H](C)CN1CC1CC1 [Example 90, 5-(4-{3-[(R)-((2S,5R)-4-Cyclopropylmethyl-2,5-dimethyl-piperazin-1-yl)-(3-hydroxy-phenyl)-methyl]-benzoyl}-piperazin-1-yl)-pentanoic acid] | 32.5 | 409 | 46.2 | – | – | –
15 | C=CCN1C[C@H](C)N([C@@H](c2cccc(O)c2)c2cccc(C(=O)N3CCN(CCCCCC(=O)OCC)CC3)c2)C[C@H]1C [Example 93, 6-(4-{3-[(R)-((2S,5R)-4-Allyl-2,5-dimethyl-piperazin-1-yl)-(3-hydroxy-phenyl)-methyl]-benzoyl}-piperazin-1-yl)-hexanoic acid ethyl ester] | 5.4 | 30.5 | 58.8 | – | – | –
16 | CCOC(=O)CCCCCN1CCN(C(=O)c2cccc([C@H](c3cccc(O)c3)N3C[C@@H](C)N(Cc4cccc(F)c4)C[C@@H]3C)c2)CC1 [Example 98, 6-(4-{3-[(R)-((2S,5R)-4-(3-Fluorobenzyl)-2,5-dimethyl-piperazin-1-yl)-(3-hydroxy-phenyl)-methyl]-benzoyl}-piperazin-1-yl)-hexanoic acid ethyl ester] | 7.1 | 8.5 | 102 | – | – | –
17 | C[C@@H]1CN([C@@H](c2cccc(O)c2)c2cccc(C(=O)N3CCN(CCCCCC(=O)O)CC3)c2)[C@@H](C)CN1Cc1cccc(F)c1 [Example 99, 6-(4-{3-[(R)-((2S,5R)-4-(3-Fluorobenzyl)-2,5-dimethyl-piperazin-1-yl)-(3-hydroxy-phenyl)-methyl]-benzoyl}-piperazin-1-yl)-hexanoic acid] | 15.7 | – | 10.6 | – | 0 | –
18 | C[C@@H]1CN([C@@H](c2cccc(O)c2)c2cccc(C(=O)N3CCN(Cc4ccc(C(=O)O)cc4)CC3)c2)[C@@H](C)CN1CC1CC1 [Example 103, 4-(4-{3-[(R)-((2S,5R)-4-Cyclopropylmethyl-2,5-dimethyl-piperazin-1-yl)-(3-hydroxy-phenyl)-methyl]-benzoyl}-piperazin-1-ylmethyl)-benzoic acid] | – | 84.7 | 187 | – | – | 0
19 | C[C@@H]1CN([C@@H](c2cccc(O)c2)c2cccc(C(=O)N3CCN(Cc4ccc(C(=O)O)cc4)CC3)c2)[C@@H](C)CN1Cc1cccc(O)c1 [Example 104, 4-(4-{3-[(R)-[(2S,5R)-4-(3-Hydroxy-benzyl)-2,5-dimethyl-piperazin-1-yl]-(3-hydroxy-phenyl)-methyl]-benzoyl}-piperazin-1-ylmethyl)-benzoic acid] | 0.99 | 19.4 | 2.06 | – | – | –
20 | COCCN1C[C@H](C)N([C@@H](c2cccc(O)c2)c2cccc(C(=O)N3CCN(Cc4ccc(C(=O)O)cc4)CC3)c2)C[C@H]1C [Example 105, 4-[4-(3-{(R)-(3-Hydroxy-phenyl)-[(2S,5R)-4-(2-methoxy-ethyl)-2,5-dimethyl-piperazin-1-yl]-methyl}-benzoyl)-piperazin-1-ylmethyl]-benzoic acid] | 32 | 88.6 | 30.6 | – | – | –
21 | C=CCN1C[C@H](C)N([C@@H](c2cccc(O)c2)c2cccc(C(=O)N3CCN(Cc4cccc5c4ccn5CC(=O)O)CC3)c2)C[C@H]1C [Example 107, [4-(4-{3-[(R)-((2S,5R)-4-Allyl-2,5-dimethyl-piperazin-1-yl)-(3-hydroxy-phenyl)-methyl]-benzoyl}-piperazin-1-ylmethyl)-indol-1-yl]-acetic acid] | 0.95 | 6.5 | 3.97 | – | – | –
22 | C=CCN1C[C@H](C)N([C@@H](c2cccc(O)c2)c2cccc(C(=O)N3CCN(CCCCCCC(=O)O)CC3)c2)C[C@H]1C [Example 109, 7-(4-{3-[(R)-((2S,5R)-4-Allyl-2,5-dimethyl-piperazin-1-yl)-(3-hydroxy-phenyl)-methyl]-benzoyl}-piperazin-1-yl)-heptanoic acid] | 1.9 | – | 7.48 | – | 0 | –
23 | CCOC(=O)CCCCCCN1CCN(C(=O)c2cccc([C@H](c3cccc(O)c3)N3C[C@@H](C)N(Cc4ccccc4)C[C@@H]3C)c2)CC1 [Example 110, 7-(4-{3-[(R)-((2S,5R)-4-Benzyl-2,5-dimethyl-piperazin-1-yl)-(3-hydroxy-phenyl)-methyl]-benzoyl}-piperazin-1-yl)-heptanoic acid ethyl ester] | – | – | 18.8 | – | 70 | –
24 | C=CCN1C[C@H](C)N([C@@H](c2cccc(O)c2)c2cccc(C(=O)N3CCC[C@H]3C(=O)O)c2)C[C@H]1C [Example 144, 1-{3-[(R)-((2S,5R)-4-Allyl-2,5-dimethyl-piperazin-1-yl)-(3-hydroxy-phenyl)-methyl]-benzoyl}-pyrrolidine-2-carboxylic acid] | 0.62 | – | 1.15 | – | 0 | –
25 | C=CCN1C[C@H](C)N([C@@H](c2cccc(O)c2)c2cccc(C(=O)N(C)CC(=O)OCC)c2)C[C@H]1C [Example 151, ({3-[(R)-((2S,5R)-4-Allyl-2,5-dimethyl-piperazin-1-yl)-(3-hydroxy-phenyl)-methyl]-benzoyl}-methyl-amino)-acetic acid ethyl ester] | – | 0.5 | 1.6 | – | 100 | –
26 | C=CCN1C[C@H](C)N([C@@H](c2cccc(O)c2)c2cccc(C(=O)N(C)CC(=O)O)c2)C[C@H]1C [Example 152, ({3-[(R)-((2S,5R)-4-Allyl-2,5-dimethyl-piperazin-1-yl)-(3-hydroxy-phenyl)-methyl]-benzoyl}-methyl-amino)-acetic acid] | 0.7 | – | 2.36 | – | 0 | –
